Tests used:
[1] = test system: Male cynomolgus macaques with a known sensitivity to inhaled Ascaris suum; experiment: Primate model of allergic rhinitis, intramuscular adjuvant; format: in vivo, cynomolgus macaque; details: GLA 10 ug intramuscularly, four weekly doses; ascaris antigens intranasally
Protocol: GLA adjuvant was evaluated in a nonhuman primate allergic rhinitis model. Male cynomolgus macaques with a known sensitivity to inhaled Ascaris suum were treated with a composition comprising a GLA adjuvant, in an oil-based emulsion formulation, with and without allergen, via intramuscular delivery.
Animals (n=12) were treated with four doses of GLA (10 ug) at weekly intervals and were exposed to Ascaris suum antigens at the same time. The evaluation of the response was determined by acoustic rhinometry which measured the nasal area as an indication of congestion Animals with severe rhinitis have reduced nasal area or increased nasal congestion as compared to those with improved response and increased nasal area or decreased nasal congestion.
In this study, animals treated with GLA-SE were compared with animals treated with SE alone. In addition, ascaris antigens in conjunction with GLA were tested. Ascaris antigens were either delivered in combination with GLA via the intramuscular route of administration, or were delivered intranasally separate from the intramuscular GLA treatment.

[2] = test system: Male cynomolgus macaques with a known sensitivity to inhaled Ascaris suum; experiment: Primate model of allergic rhinitis, intranasal adjuvant; format: in vivo, cynomolgus macaque
Protocol: GLA adjuvant was evaluated in a nonhuman primate allergic rhinitis model. Male cynomolgus macaques with a known sensitivity to inhaled Ascaris suum were treated with a composition comprising a GLA adjuvant, in an aqueous formulation, via intranasal delivery.
12 animals were assigned randomly to each of vehicle or drug treatment groups. The drug treatment group received 100 μl of a composition containing 5.0 μg GLA adjuvant in an aqueous formulation, intranasally in each nostril, for a total dose of 10 μg. The vehicle group received 100 μl of vehicle in each nostril. The adjuvant or vehicle was administered intranasally once weekly for 4 consecutive weeks. All intranasal dosing was administered using a Penn Century Microsprayer.
The animals were challenged with Ascaris suum into the left nostril concurrent with treatment on days 0 and 14 (at the first and third treatment times).
Animals with severe rhinitis have reduced nasal area or increased nasal congestion as compared to those with improved response and increased nasal area or decreased nasal congestion. Nasal lavage samples were also obtained and total and differential cell count were evaluated.
Briefly, animals were sedated and placed on a ventilator. Blood samples were drawn. A baseline Acoustic Rhinometer measurement (nasal volume and nasal minimum cross-sectional area) was taken in the left nostril followed by instillation of 100 μl saline using a microspayer. After instillation of saline, Acoustic Rhinometry measurements (nasal volume and nasal minimum cross-sectional area) were taken at 2 minutes. Next 100 μl of A. suum (10.0 mg/ml) was instilled into the left nostril using a microsprayer and Acoustic Rhinometry measurements were taken at 1, 2, 3 minutes. Fifteen minutes after A. suum challenge a nasal lavage was performed using 3.0 ml saline injected into the left nostril. After nasal lavage, sedation was reversed.
Total cell count in the nasal lavage samples was determined using the Advia120 hematology analyzer (SOP BW-INM-Resp-SOP-09033). Differential cell counts were performed with cystospins manually on 200 cells using standard morphological criteria.

[3] = test system: dendritic cells (both myeloid and monocyte-derived); experiment: Activation and maturation of dendritic cells in vitro; format: cell-based, human
Protocol: (§1) The effect of GLA adjuvant in vitro on various human cell types was evaluated.

OVA-sensitized mice = experiment: Prophylactic dosing regimens in murine model of allergy; format: in vivo, mouse
Protocol: Three different prophylactic dosing regimens of GLA adjuvant, in an aqueous formulation, were evaluated in the same murine model of allergy described in Example 2. Mice were divided into three treatment arms (20 mice per group), treated as follows starting at 1 week post OVA sensitization, and then challenged with OVA or saline (negative control):
Vehicle-treated at day 14; Saline challenged (negative control) Vehicle-treated at day 14; OVA challenged (positive control) GLA-treated at day 14, with a single dose of GLA (2 ug/animal, i.n.); OVA challenged GLA-treated on days 14, 15, 16, 17, with 4 doses of GLA on consecutive days (each dose 2 ug/animal, i.n.); OVA challenged GLA+Ag-treated on day 14, single dose GLA (2 ug/animal, i.n.)+OVA antigen (20 ug/animal, i.n.); OVA challenged
The animals were challenged with OVA or saline i.n. for 4 consecutive days, 5-7 days post treatment (at days 22, 23, 24 and 25). Airway hyperresponsiveness (AHR) was determined at 1 or 2 days post challenge (the large number of animals required two days to complete the AHR testing). Bronchoalveolar lavage fluid (BALF), thoracic lymph nodes and spleen were collected for FACS & cytokine analysis, and serum was collected for IgE and IgG levels.

[4] = test system: PBMCs from peanut allergic subjects; experiment: T cell proliferation and cytokine expression of PBMCs from peanut-allergic subjects; format: cell-based, human
Description: PBMCs were collected from peanut allergic and non-allergic subjects (n=4) and evaluated for T cell proliferation and cytokine expression after exposure to peanut extract and GLA. […] In addition, these samples had increased tolerogenic IL-10 expression and […] IL-2 expression indicative of inhibition of T cell proliferation.

[5] = test system: PBMCs from Timothy Grass allergic subjects; experiment: Cytokine expression of PBMCs from Timothy grass-allergic subjects; format: cell-based, human; details: Timothy grass allergen and GLA
Description: PBMCs were collected from Timothy Grass allergic and non-allergic subjects and evaluated for T cell cytokine expression after exposure to Timothy grass allergen and GLA. As shown in FIG. 16A-16D, GLA decreased IL-5 and increased IFN-γ, IL-12 and TNF-alpha cytokine response to Timothy grass allergen.

[6] = test system: Male Balb/c mice sensitized with OVA; experiment: Murine model of chronic allergy (OVA-induced airway inflammation and hyperreactivity); format: in vivo, mouse
Protocol: The effect of GLA was evaluated in a chronic model Of OVA-induced airway inflammation and airway hyperreactivity in mice. Male Balb/c mice were sensitized systemically with OVA i.p. over a 2 week period (days 0 & 14). One week later, they were challenged with OVA i.n for 3 consecutive days (days 22 through 24). The animals were then treated once with GLA, in an aqueous formulation, i.n., 1 day post-challenge (day 25) as follows (20 mice per group):
Vehicle-treated; Saline challenged (negative control) Vehicle-treated; OVA challenged (positive control) GLA-treated, single dose (2 ug/animal, i.n.); OVA challenged
The animals were challenged again with OVA i.n. 1 month later (days 55 & 56). AHR as described above in Example 2 was performed 1-2 days post 2nd challenge (the large number of animals required two days to complete the AHR testing). Bronchoalveolar lavage fluid (BALF), thoracic lymph nodes and spleen were collected for FACS & cytokine analysis, and serum was collected for IgE and IgG levels.

[7] = test system: mice presensitized with intra-gastric RPE; experiment: Murine model of peanut allergy, related study with GLA-SE +/- peanut extract; format: in vivo, mouse; details: with or without antigen, s.c.
Protocol: In a related study, mice were presensitized with intra-gastric RPE six times at days 0, 1, 2, 7, 14 and 21 (FIG. 15). On days 29, 35, 42 and 49, mice were treated subcutaneously with 2 ug GLA-SE or 2 ug GLA-SE+50 ug RPE. Mice were subsequently challenged by intraperitoneal administration on study day 55 with 12 mg RPE. Anaphylaxis scores and body temperature of mice were then measured. […] Disease scoring was as follows: 1: mild anaphylaxis (scratching, mild snout swelling); 2: Moderate anaphylaxis (mod swelling, mild lethargy) 3: =Severe anaphylaxis (severe swelling, lethargy); 4: Very severe anaphylaxis (moribund, labored breathing); 5: Death.

various human cell types = experiment: Effect of GLA adjuvant in vitro on cytokine expression of human cells; format: cell-based
Protocol: as §1

[8] = treatment period (weeks 1-4) and 4 weeks post treatment (weeks 5-8)
[9] = 4 doses on days 14, 15, 16, 17, each 2 ug/animal i.n.
[10] = single dose day 14, 2 ug/animal i.n.
[11] = Day 1 after peanut extract and GLA exposure

SMILES: CCCCCCCCCCCCCC(=O)OC(CCCCCCCCCCC)CC(=O)NC1C(OCC2OC(O)C(NC(=O)CC(O)CCCCCCCCCCC)C(OC(=O)CC(O)CCCCCCCCCCC)C2O)OC(CO)C(OP(=O)(O)O)C1OC(=O)CC(CCCCCCCCCCC)OC(=O)CCCCCCCCCCCCC (centres unmarked) [GLA, glucopyranosyl lipid A]
- nasal rhinitis scores [1]: did not improve
- percentage of baseline nasal cross sectional area ([2]; 10 μg intranasal once weekly for 4 weeks, compared with vehicle): increased
- antigen-induced nasal congestion ([2]; aqueous formulation, 10 μg intranasal once weekly for 4 weeks, A. suum challenge): reduced
- differential cell count (lymphocyte, monocyte, granuolocyte, neutrophil, eosinophil or basophil cell numbers) [2, 8]: not altered
- platelet counts [2, 8]: did not alter
- red blood cell counts [2, 8]: did not alter
- white blood cell counts [2, 8]: did not alter
- activation and maturation of dendritic cells [3]: induced activation and maturation
- CD3+ T cells in BALF (OVA-sensitized mice; [9]): decreased
- eosinophil in BALF (OVA-sensitized mice; [9]): decreased
- total leukocytes in BALF (OVA-sensitized mice; [9]): decreased
- cellularity systemically, in spleen or lymph nodes (OVA-sensitized mice; i.n. GLA treatment): did not alter
- numbers of CD3+ T cells in BALF (OVA-sensitized mice; [10]): did not alter
- numbers of eosinophils in BALF (OVA-sensitized mice; [10]): did not alter
- numbers of macrophages in BALF (OVA-sensitized mice; [10]): did not alter
- IL12p70 (IL-12) expression [4, 11]: increased
- IL-2 expression [4, 11]: increased
- interferon gamma expression [4, 11]: increased
- tolerogenic IL-10 expression [4, 11]: increased
- CD4 T cell proliferation ([4]; Day 6 after exposure to peanut extract and GLA): dose-dependent antigen specific inhibition
- IL-12 cytokine response to Timothy grass allergen ([5]; 2 day culture): increases
- TNF-alpha cytokine response to Timothy grass allergen ([5]; 2 day culture): increases
- IFN-γ cytokine response to Timothy grass allergen ([5]; 6 day culture): increases
- IL-5 cytokine response to Timothy grass allergen ([5]; 6 day culture): decreases
- leukocyte cell count in BALF (including eosinophil, macrophage or CD3+ T cell counts) ([6]; single dose 2 ug/animal i.n.): did not alter
- time after GLA dosing for which effects could be observed ([6]; single dose 2 ug/animal i.n.): at least 1 month
- airway hyperresponsiveness ([6]; single dose 2 ug/animal i.n. day 25, 1 month before allergen challenge): attenuate
- IL-4 expression in the airway after allergen challenge ([6]; single dose 2 ug/animal i.n. one month before allergen challenge): attenuate
- peanut allergy in a mouse model [7]: attenuates
- GM-CSF expression (various human cell types): induced expression
- IL-1β expression (various human cell types): induced expression
- IL-6 expression (various human cell types): induced expression
- IL-8 expression (various human cell types): induced expression
- IL-10 expression (various human cell types): induced expression
- TNF-α expression (various human cell types): induced expression

Source: patent US20160030459A1, “COMPOSITIONS AND METHODS FOR TREATING ALLERGIC CONDITIONS” (IMMUNE DESIGN CORP., priority 2014, published 2016)
